How the values were obtained:
Assay type in all cases: biochemical
Tyk2 = Tyk2 (Homo sapiens, UniProt P29597); experiment: Inhibition of JAK kinase activity, EZ Reader microfluidic phosphorylation of peptide substrate: Tyk2; settings: Tyk2 kinase 1 nM; highest final concentration 10 μM, 1:3 serial dilution, 8 points, duplicates
Text: (§1) EZ Reader available from PerkinElmer can be used for detecting the phosphorylation of polypeptide substrates catalyzed by kinases. This device is based on microfluidic separation technology, and can directly detect fluorescence labeled substrates and products. The separation step is achieved in a microfluidic chip by controlling the pressure and electric field intensity. In a kinase experiment, the product conversion rate is generally controlled at 20-30%. This biological assay method is used for identifying the inhibitory effect of the compounds on JAK.
(§2) The compound powder was dissolved in DMSO, sealed and stored in a refrigerator at −20° C. The in-house compound Ref1 was used as a positive control for testing of JAK1, JAK2 and Tyk2, and Ref2 was used as a positive control for testing of JAK3.
(§3) • S2.1. 1M HEPES buffer: 0.5M HEPES free acid and 0.5M HEPES sodium salt are weighed, added into ultrapure water for dissolution, brought to a desired volume, filtered and stored in a refrigerator at 4° C. • S2.2. 40 mM ATP solution: dissolved in a 50 mM HEPES buffer solution, prepared into 40 mM, aliquoted, and cryopreserved in a refrigerator at −20° C. • S2.3. 0.5% Tween 20: 100% Tween 20 was diluted with ultrapure water, and stored in a refrigerator at 4° C. • S2.4. 35% bovine serum albumin: a 35% bovine serum albumin solution is prepared in ultrapure water, aliquoted, and stored in a refrigerator at −20° C. • S2.5. 1M dithiothreitol solution: dithiothreitol is formulated into a 1M solution with ultrapure water, aliquoted, and stored in a refrigerator at −20° C. • S2.6. 0.5 mM Jaktide Peptide substrate solution: it is dissolved in 50 mM HEPES to 0.5 mM, aliquoted, and stored in a refrigerator at −20° C. • S2.7. 0.5 mM IRStide Peptide substrate solution: it is dissolved in 50 mM HEPES to 0.5 mM, aliquoted, and stored in a refrigerator at −20° C. • S2.8. Assay Buffer: 20 mM HEPES buffer, pH 7.4, 10 mM magnesium chloride, 0.01% bovine serum albumin BSA, 0.0005% Tween-20, and a 1 mM dithiothreitol solution. • S2.9. Stop Buffer: 180 mM HEPES buffer, 20 mM ethylenediamine tetraacetic acid (EDTA), and 0.2% Coating Reagent 3. • S2.10. Separation Buffer: 100 mM HEPES buffer, 10 mM EDTA, 0.0005% Tween 20, 0.1% Coating Reagent 3, and 1% dimethyl sulfoxide. 3. Experimental Procedures • S3.1. Preparation of compound plate
(§4) The compound is dissolved in dimethyl sulfoxide to 10 mM, a certain volume is taken and diluted to 0.6 mM, 10 μl of the diluted 0.6 mM solution is taken and added into a 384 microplate or 1:3 serial dilution, with a total of 8 concentration points. • S3.2. Compound layout
(§5) • positive control (HPE1): Ref1, final concentration: 10 μM • positive control (HPE1): Ref2, final concentration: 10 μM • negative control (ZPE): DMSO, with a final concentration of 1.6% • Compound: the highest final concentration at 10 μM, 1:3 serial dilution, with 8 concentration points and in duplicates. 4. Experimental operation steps • S4.1. the experimental plate was added with 250 nl of the compound per well with ECHO, and centrifuged at 1,000 rpm for 1 minute; • S4.2. the precipitate was added with 5 μl of the experimental buffer, and shaken for several seconds to fully dissolve the compound; • S4.3. the solution was added with 5 μl of a 3× substrate solution, as well as 5 μl of a 3× kinase solution, and centrifuged at 800 rpm for 1 minute; • S4.4. The final concentrations of JAK1, JAK2, JAK3 and Tyk2 kinases in the reaction system are 20, 1, 1 and 1 nM, respectively. • S4.5. the reaction system is incubated at room temperature, wherein the incubation time of each kinase is different, and there are differences in incubation time of different batches of kinases. • S4.6. When the reaction reaches 20%-30%, the reaction system is added with 15 μl of the stop buffer to terminate the reaction, and centrifuged at 1,000 rpm for 2 minutes. • S4.7. The precipitate was placed onto a EZ Reader for plate reading. • S4.8. […]

JAK1 = JAK1 (Homo sapiens, UniProt P23458); experiment: Inhibition of JAK kinase activity, EZ Reader microfluidic phosphorylation of peptide substrate: JAK1; settings: JAK1 kinase 20 nM; highest final concentration 10 μM, 1:3 serial dilution, 8 points, duplicates
JAK1, sequence (P23458 whole entry): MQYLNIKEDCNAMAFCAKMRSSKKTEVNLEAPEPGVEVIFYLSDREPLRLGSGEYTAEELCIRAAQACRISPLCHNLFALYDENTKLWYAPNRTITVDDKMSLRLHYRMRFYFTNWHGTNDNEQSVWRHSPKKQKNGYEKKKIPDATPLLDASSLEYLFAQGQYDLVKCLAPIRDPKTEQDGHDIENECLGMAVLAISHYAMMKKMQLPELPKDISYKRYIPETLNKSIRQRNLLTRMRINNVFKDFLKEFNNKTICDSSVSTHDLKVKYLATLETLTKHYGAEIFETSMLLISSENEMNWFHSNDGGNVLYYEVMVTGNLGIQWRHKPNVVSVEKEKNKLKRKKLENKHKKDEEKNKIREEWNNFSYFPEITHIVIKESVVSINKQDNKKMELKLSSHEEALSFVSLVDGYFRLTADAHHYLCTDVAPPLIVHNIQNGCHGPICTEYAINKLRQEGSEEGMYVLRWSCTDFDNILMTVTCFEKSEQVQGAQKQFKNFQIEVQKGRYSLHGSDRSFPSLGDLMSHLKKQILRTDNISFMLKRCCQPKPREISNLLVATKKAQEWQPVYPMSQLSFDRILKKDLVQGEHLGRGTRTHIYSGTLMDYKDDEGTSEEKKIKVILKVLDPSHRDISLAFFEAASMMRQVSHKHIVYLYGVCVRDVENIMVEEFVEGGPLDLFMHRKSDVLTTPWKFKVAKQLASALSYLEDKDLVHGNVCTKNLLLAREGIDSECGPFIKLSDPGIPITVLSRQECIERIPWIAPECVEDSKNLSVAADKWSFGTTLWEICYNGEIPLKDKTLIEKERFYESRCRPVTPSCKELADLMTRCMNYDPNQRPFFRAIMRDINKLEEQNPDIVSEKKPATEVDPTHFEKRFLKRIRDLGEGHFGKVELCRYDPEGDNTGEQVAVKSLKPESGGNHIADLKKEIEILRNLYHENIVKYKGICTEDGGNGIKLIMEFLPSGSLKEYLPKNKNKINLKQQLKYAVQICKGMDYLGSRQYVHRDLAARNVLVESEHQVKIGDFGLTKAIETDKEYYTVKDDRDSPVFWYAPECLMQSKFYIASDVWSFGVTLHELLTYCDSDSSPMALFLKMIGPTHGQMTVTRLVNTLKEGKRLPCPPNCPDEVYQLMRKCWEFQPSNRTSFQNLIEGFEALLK
Text: as §1, §2, §3, §4, §5

JAK2 = JAK2 (Homo sapiens, UniProt O60674); experiment: Inhibition of JAK kinase activity, EZ Reader microfluidic phosphorylation of peptide substrate: JAK2; settings: JAK2 kinase 1 nM; highest final concentration 10 μM, 1:3 serial dilution, 8 points, duplicates
JAK2, sequence (O60674 whole entry): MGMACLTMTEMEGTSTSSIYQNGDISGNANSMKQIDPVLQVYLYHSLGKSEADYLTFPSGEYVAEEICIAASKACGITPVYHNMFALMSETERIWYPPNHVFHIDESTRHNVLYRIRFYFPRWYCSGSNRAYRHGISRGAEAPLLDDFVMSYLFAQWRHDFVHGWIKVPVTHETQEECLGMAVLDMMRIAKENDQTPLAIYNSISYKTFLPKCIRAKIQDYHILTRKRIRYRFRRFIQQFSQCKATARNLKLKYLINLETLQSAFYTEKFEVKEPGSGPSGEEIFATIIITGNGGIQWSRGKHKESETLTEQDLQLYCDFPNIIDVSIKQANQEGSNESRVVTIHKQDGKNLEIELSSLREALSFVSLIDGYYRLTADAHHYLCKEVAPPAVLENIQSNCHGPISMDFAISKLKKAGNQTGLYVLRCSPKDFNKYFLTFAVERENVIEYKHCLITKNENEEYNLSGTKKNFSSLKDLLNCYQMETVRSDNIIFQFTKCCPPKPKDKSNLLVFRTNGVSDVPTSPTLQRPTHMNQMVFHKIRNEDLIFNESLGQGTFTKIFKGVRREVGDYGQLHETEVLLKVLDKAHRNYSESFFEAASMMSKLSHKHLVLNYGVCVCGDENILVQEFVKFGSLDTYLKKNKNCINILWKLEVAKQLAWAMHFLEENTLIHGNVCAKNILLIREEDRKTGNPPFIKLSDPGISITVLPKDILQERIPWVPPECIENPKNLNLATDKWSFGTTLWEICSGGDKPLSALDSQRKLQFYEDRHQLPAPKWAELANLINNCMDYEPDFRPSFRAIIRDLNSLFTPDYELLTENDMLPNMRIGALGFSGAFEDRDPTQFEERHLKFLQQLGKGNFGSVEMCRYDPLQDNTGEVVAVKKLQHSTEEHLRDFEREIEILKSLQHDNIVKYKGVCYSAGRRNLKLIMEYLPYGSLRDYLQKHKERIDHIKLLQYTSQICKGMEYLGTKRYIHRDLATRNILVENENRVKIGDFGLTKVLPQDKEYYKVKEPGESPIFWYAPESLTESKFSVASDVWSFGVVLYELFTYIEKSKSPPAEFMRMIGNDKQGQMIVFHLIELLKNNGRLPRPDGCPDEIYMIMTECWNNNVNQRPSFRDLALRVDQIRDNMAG
Text: as §1, §2, §3, §4, §5

JAK3 = molecular target: T1, JAK3 (Homo sapiens, UniProt P52333); experiment: Inhibition of JAK kinase activity, EZ Reader microfluidic phosphorylation of peptide substrate: JAK3; settings: JAK3 kinase 1 nM; highest final concentration 10 μM, 1:3 serial dilution, 8 points, duplicates
T1 sequence (P52333 1-1124): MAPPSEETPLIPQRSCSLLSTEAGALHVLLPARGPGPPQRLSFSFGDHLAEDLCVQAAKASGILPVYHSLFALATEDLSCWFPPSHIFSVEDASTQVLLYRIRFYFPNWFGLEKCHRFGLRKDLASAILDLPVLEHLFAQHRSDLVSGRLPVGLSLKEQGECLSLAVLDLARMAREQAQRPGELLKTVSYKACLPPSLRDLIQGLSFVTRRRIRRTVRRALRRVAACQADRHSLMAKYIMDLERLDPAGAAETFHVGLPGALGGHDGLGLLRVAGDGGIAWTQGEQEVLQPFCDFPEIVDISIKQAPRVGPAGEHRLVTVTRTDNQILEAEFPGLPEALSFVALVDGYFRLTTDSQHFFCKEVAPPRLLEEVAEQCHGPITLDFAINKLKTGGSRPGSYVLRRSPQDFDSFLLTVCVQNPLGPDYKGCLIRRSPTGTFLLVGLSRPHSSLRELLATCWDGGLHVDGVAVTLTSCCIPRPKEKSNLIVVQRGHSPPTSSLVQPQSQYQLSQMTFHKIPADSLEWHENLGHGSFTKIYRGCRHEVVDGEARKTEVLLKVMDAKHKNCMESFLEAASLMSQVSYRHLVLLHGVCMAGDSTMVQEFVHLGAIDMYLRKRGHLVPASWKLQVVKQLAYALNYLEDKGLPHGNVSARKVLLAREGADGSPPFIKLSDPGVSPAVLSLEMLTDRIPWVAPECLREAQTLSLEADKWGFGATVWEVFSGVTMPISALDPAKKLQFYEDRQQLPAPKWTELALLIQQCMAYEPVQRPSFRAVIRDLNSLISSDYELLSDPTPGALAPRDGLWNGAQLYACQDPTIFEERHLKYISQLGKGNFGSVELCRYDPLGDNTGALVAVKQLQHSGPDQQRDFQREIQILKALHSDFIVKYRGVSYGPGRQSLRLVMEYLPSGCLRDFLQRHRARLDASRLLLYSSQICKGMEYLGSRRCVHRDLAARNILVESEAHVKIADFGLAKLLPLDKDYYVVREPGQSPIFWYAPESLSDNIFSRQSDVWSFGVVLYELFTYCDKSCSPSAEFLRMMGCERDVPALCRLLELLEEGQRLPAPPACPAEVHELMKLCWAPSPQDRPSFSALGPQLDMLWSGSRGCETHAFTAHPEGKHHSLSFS
Text: as §1, §2, §3, §4, §5

Tyk2, sequence (P29597 whole entry): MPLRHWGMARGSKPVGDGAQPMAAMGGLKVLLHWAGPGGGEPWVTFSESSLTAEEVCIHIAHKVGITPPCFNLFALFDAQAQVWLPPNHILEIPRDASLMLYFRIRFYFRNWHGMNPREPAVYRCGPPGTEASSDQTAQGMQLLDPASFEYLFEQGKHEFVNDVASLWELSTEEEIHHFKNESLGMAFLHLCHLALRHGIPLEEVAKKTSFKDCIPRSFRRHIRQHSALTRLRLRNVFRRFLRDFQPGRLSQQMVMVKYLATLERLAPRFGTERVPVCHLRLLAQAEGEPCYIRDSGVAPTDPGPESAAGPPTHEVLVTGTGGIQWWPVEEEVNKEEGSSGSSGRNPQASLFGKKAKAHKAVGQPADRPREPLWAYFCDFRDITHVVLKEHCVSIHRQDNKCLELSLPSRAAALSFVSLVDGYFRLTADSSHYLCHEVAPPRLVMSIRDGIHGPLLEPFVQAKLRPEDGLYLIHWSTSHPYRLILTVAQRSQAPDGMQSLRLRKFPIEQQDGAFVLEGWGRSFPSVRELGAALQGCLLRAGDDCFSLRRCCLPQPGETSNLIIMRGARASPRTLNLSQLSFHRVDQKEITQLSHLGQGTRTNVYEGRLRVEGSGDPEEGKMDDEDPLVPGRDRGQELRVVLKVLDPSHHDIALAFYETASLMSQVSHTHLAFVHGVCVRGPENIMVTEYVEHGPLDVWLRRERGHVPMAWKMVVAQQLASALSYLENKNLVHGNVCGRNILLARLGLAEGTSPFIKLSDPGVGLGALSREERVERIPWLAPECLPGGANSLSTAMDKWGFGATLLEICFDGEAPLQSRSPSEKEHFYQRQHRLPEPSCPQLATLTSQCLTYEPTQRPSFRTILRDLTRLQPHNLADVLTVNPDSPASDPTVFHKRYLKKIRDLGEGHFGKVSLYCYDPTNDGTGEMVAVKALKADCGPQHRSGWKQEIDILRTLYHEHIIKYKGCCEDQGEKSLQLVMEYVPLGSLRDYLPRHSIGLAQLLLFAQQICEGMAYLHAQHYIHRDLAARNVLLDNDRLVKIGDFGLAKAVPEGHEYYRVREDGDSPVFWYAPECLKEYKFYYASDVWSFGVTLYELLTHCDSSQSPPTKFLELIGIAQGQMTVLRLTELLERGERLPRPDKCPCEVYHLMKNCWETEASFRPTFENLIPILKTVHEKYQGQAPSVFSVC

| IC50 (Tyk2) [µM] | IC50 (JAK1) [µM] | IC50 (JAK2) [µM] | IC50 (JAK3) [µM] | Structure (SMILES) |
| --- | --- | --- | --- | --- |
| ≥ 10 | ≥ 10 | ≥ 10 | ≥ 10 | CCC(=O)N1CCC(n2cc(-c3ccnc(Nc4cnn(C)c4)n3)cn2)C1 (stereo not drawn) [TDM-180649, 1-(3-(4-(2-((1-methyl-1H-pyrazol-4-yl)amino)pyrimidin-4-yl)-1H-pyrazol-1-yl)pyrrolidin-1-yl)propan-1-one] |
| ≥ 10 | ≥ 10 | ≥ 10 | ≥ 10 | CCCC(=O)N1CCC(n2cc(-c3ccnc(Nc4cnn(C)c4)n3)cn2)C1 (stereo not drawn) [TDM-180650, 1-(3-(4-(2-((1-methyl-1H-pyrazol-4-yl)amino)pyrimidin-4-y1)-1H-pyrazol-1-yl)pyrrolidin-1-yl)butan-1-one] |
| ≥ 10 | ≥ 10 | 1 to 10 | ≥ 10 | Cn1cc(Nc2nccc(-c3cnn(C4CCN(C(=O)CC(F)(F)F)C4)c3)n2)cn1 (stereo not drawn) [TDM-180651, 3,3,3-trifluoro-1-(3-(4-(2-((1-methyl-1H-pyrazol-4-yl)amino)pyrimidin-4-yl)-1H-pyrazol-1-yl)pyrrolidine-yl)propan-1-one] |
| ≥ 10 | ≥ 10 | ≥ 10 | ≥ 10 | Cn1cc(Nc2nccc(-c3cnn(C4CCN(C(=O)C5CC5)C4)c3)n2)cn1 (stereo not drawn) [TDM-180652, cyclopropyl(3-(4-(2-((1-methyl-1H-pyrazol-4-yl)amino)pyrimidin-4-yl)-1H-pyrazol-1-yl)pyrrolidin-1-yl)ketone] |
| 1 to 10 | ≥ 10 | 1 to 10 | ≥ 10 | Cn1cc(Nc2nccc(-c3cnn(C4CCN(C(=O)CC#N)C4)c3)n2)cn1 (stereo not drawn) [TDM-180653, 3-(3-(4-(2-((1-methyl-1H-pyrazol-4-yl)amino)pyrimidin-4-yl)-1H-pyrazol-1-yl)pyrrolidin-1-yl)-3-oxopropanenitrile] |
| 1 to 10 | ≥ 10 | 1 to 10 | ≥ 10 | Cn1cc(Nc2nccc(-c3cnn(C4CCN(C(=O)C5CC5(F)F)C4)c3)n2)cn1 (stereo not drawn) [TDM-180654, (2,2-difluorocyclopropyl)(3-(4-(2-((1-methyl-1H-pyrazol-4-yl)amino)pyrimidin-4-yl)-1H-pyrazol-1-yl)pyrrolidin-1-yl)ketone] |
| 1 to 10 | 1 to 10 | 1 to 10 | ≥ 10 | CCS(=O)(=O)N1CC(n2cc(-c3ccnc(Nc4cnn(C)c4)n3)cn2)C1 [TDM-180665, 4-(1-(1-(ethylsulfonyl)azetidin-3-yl)-1H-pyrazol-4-yl)-N-(1-methyl-1H-pyrazol-4-yl)pyrimidin-2-amine] |
| ≥ 10 | ≥ 10 | 1 to 10 | ≥ 10 | CCCS(=O)(=O)N1CC(n2cc(-c3ccnc(Nc4cnn(C)c4)n3)cn2)C1 [TDM-180666, N-(1-methyl-1H-pyrazol-4-yl)-4-(1-(1-(propylsulfonyl)azetidin-3-yl)-1H-pyrazol-4-yl)pyrimidin-2-amine] |
| ≥ 10 | ≥ 10 | ≥ 10 | ≥ 10 | Cn1cc(Nc2nccc(-c3cnn(C4CN(C(=O)C5CC5)C4)c3)n2)cn1 [TDM-180667, cyclopropyl(3-(4-(2-((1-methyl-1H-pyrazol-4-yl)amino)pyrimidin-4-yl)-1H-pyrazol-1-yl)azetidin-1-yl)ketone] |

Second part, the molecule before the results:

| Structure (SMILES) | IC50 (Tyk2) [µM] | IC50 (JAK1) [µM] | IC50 (JAK2) [µM] | IC50 (JAK3) [µM] |
| --- | --- | --- | --- | --- |
| CCCS(=O)(=O)N1CC(n2cc(-c3ccnc(Nc4cnn(C)c4)c3)cn2)C1 [TDM-180643, N-(1-methyl-1H-pyrazol-4-yl)-4-(1-(1-(propylsulfonyl)azetidin-3-yl)-1H-pyrazol-4-yl)pyridine-2-amine] | ≥ 10 | ≥ 10 | ≥ 10 | ≥ 10 |
| Cn1cc(Nc2cc(-c3cnn(C4CN(C(=O)CO)C4)c3)ccn2)cn1 [TDM-180644, 2-hydroxy-1-(3-(4-(2-((1-methyl-1H-pyrazol-4-yl)amino)pyridin-4-yl)-1H-pyrazol-1-yl)azetidin-1-yl)ethan-1-one] | ≥ 10 | ≥ 10 | ≥ 10 | ≥ 10 |
| CC(=O)N1CC(n2cc(-c3ccnc(Nc4cnn(C)c4)c3)cn2)C1 [TDM-180645] | ≥ 10 | ≥ 10 | ≥ 10 | ≥ 10 |
| CCC(=O)N1CC(n2cc(-c3ccnc(Nc4cnn(C)c4)n3)cn2)C1 [TDM-180646, 1-(3-(4-(2-((1-methyl-1H-pyrazol-4-yl)amino)pyrimidin-4-yl)-1H-pyrazol-1-yl)azetidin-1-yl)propan-1-one] | ≥ 10 | ≥ 10 | ≥ 10 | ≥ 10 |
| CCS(=O)(=O)N1CCC(n2cc(-c3ccnc(Nc4cnn(C)c4)n3)cn2)C1 (stereo not drawn) [TDM-180647, 4-(1-(1-(ethylsulfonyl)pyrrolidine-3-yl)-1H-pyrazol-4-yl)-N-(1-methyl-1H-pyrazol-4-yl)pyrimidin-2-amine] | ≥ 10 | ≥ 10 | 1 to 10 | 1 to 10 |
| CCCS(=O)(=O)N1CCC(n2cc(-c3ccnc(Nc4cnn(C)c4)n3)cn2)C1 (stereo not drawn) [TDM-180648, N-(1-methyl-1H-pyrazol-4-yl)-4-(1-(1-(propylsulfonyl)pyrrolidine-3-yl)-1H-pyrazol-4-yl)pyrimidin-2-amine] | 1 to 10 | 1 to 10 | 1 to 10 | 1 to 10 |
